Reference: patent publication US20230085549A1 (Janssen Pharmaceutica NV, priority 2021, published 2023)
pKi: −log10 of the molar value. Where two headings read alike, the source gives them in different places.

Experiments:
[1] = Drug interaction studies with oral paliperidone; assay type: in vivo, human
Source text: Higher doses of paroxetine have not been studied.
This interaction has not been studied with INVEGA HAFYERA.

[2] = test system: rat bone marrow; test: In vivo rat bone marrow micronucleus test
[3] = test system: cholinergic muscarinic receptors; test: In vitro receptor binding affinity
[4] = test system: rats; test: Oral paliperidone study of fertility in rats; assay type: in vivo
Experimental: These parameters were not affected at an oral dose of 0.63 mg/kg, which is half of the oral MRHD of 12 mg based on mg/m^2 body surface area.
(§1) Serum testosterone and sperm parameters partially recovered, but remained decreased after the last observation (two months after treatment was discontinued).

[5] = human, in vivo, po
Source text: Observed signs and symptoms included extrapyramidal symptoms and gait unsteadiness.

[6] = test system: bacteria; test: In vitro Ames bacterial reverse mutation test; assay type: cell-based
[7] = Plasma protein binding; assay type: in vitro ADME; conditions: racemic
[8] = test system: mouse lymphoma; test: Mouse lymphoma assay; assay type: cell-based
[9] = test system: cytochrome P450 isozymes, including CYP1A2, CYP2A6, CYP2C8/9/10, CYP2D6, CYP2E1, CYP3A4, and CYP3A5; test: Inhibition of drug metabolism in human liver microsomes; assay type: in vitro ADME
[10] = target: β1-adrenergic receptor (Homo sapiens, UniProt P08588); test: In vitro receptor binding affinity
[11] = target: α2 adrenergic receptor; test: In vitro receptor binding affinity; conditions: antagonist
[12] = target: central dopamine D2 receptor (Homo sapiens, UniProt P14416); test: In vitro receptor binding affinity; conditions: antagonist
[13] = target: central Dopamine type 2 (D2) receptor (Homo sapiens, UniProt P14416); conditions: at paliperidone plasma concentration 7.5 ng/mL; cited from earlier work
[14] = clinical; conditions: human, in vivo, po, 4 mg
[15] = target: serotonin 5HT2A receptor (Homo sapiens, UniProt P28223); test: biochemical
[16] = target: P-glycoprotein (P-gp) (Homo sapiens, UniProt P08183); test: P-gp substrate and inhibition studies in vitro; assay type: in vitro ADME
[17] = test system: pregnant rats and rabbits; test: Animal reproduction studies, oral paliperidone during organogenesis; assay type: in vivo; conditions: period of organogenesis, mg/m^2
[18] = Pharmacokinetics in specific populations (oral paliperidone studies, population PK modelling); assay type: in vivo, human; conditions: elderly subjects
Source text: No specific pharmacokinetic studies have been performed with […] in specific populations. All the information is obtained from studies with oral paliperidone or is based on the population pharmacokinetic modelling of oral paliperidone and […].

[19] = Study with oral immediate-release 14C-paliperidone (excretion, metabolism); assay type: in vivo
[20] = test system: juvenile rats; test: Juvenile rat study with oral paliperidone; assay type: in vivo
[21] = target: α1 adrenergic receptor; test: In vitro receptor binding affinity; conditions: antagonist
[22] = test system: CYP1A2, CYP2A6, CYP2C9, and CYP2C19; test: CYP substrate studies in vitro; assay type: in vitro ADME, human
[23] = target: β2-adrenergic receptor (Homo sapiens, UniProt P07550); test: In vitro receptor binding affinity
[24] = Solubility in solvents and water; assay type: physicochemical
[25] = test system: Beagle dogs; test: Subchronic study in Beagle dogs with risperidone; assay type: in vivo; conditions: all doses tested ([…]-5.0 mg/kg)
Source text: as §1

[26] = test system: Juvenile dogs; test: Juvenile dog study with oral risperidone, 40 weeks
[27] = test system: pregnant mice, rats and rabbits; test: Reproduction toxicity studies with orally administered risperidone; assay type: in vivo
Source text: Increased neuronal cell death occurred in the fetal brains of the offspring of pregnant rats treated at 0.5 to 1.2 times the MRHD; the postnatal development and growth of the offspring was delayed.

Chain of P-glycoprotein (P-gp) (P08183 whole entry): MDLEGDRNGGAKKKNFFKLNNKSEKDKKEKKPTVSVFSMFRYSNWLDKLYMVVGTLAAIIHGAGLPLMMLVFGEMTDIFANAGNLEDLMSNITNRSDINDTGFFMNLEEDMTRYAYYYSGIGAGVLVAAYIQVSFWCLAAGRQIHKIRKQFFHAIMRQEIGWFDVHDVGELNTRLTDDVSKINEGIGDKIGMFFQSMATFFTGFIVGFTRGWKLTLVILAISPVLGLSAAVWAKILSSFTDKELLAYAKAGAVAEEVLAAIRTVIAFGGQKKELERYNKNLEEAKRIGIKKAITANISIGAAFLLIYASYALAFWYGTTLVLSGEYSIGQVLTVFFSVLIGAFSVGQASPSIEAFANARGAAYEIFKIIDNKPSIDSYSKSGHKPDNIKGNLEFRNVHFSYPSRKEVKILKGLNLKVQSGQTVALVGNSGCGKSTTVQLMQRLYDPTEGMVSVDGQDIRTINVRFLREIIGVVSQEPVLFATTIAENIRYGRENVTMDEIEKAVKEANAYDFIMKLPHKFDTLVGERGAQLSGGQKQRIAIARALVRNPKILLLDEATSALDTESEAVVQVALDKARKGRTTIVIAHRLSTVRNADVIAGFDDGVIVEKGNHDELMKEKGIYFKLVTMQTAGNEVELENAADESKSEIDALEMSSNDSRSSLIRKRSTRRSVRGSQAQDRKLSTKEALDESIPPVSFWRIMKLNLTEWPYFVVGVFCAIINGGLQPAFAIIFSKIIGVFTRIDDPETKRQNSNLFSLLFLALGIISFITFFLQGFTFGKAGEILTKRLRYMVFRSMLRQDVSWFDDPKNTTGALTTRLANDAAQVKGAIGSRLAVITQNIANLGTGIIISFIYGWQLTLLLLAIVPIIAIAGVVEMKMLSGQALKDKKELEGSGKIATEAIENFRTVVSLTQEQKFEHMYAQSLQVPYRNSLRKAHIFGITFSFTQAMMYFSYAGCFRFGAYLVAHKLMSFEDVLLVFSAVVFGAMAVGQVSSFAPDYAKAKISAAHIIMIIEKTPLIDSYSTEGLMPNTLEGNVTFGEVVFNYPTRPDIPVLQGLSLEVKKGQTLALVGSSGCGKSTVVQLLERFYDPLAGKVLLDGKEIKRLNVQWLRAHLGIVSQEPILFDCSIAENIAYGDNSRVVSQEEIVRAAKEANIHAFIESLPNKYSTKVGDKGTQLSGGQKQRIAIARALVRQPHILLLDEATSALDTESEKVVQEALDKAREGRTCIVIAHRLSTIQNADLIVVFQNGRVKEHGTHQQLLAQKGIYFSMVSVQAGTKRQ
Chain of β1-adrenergic receptor (P08588 whole entry): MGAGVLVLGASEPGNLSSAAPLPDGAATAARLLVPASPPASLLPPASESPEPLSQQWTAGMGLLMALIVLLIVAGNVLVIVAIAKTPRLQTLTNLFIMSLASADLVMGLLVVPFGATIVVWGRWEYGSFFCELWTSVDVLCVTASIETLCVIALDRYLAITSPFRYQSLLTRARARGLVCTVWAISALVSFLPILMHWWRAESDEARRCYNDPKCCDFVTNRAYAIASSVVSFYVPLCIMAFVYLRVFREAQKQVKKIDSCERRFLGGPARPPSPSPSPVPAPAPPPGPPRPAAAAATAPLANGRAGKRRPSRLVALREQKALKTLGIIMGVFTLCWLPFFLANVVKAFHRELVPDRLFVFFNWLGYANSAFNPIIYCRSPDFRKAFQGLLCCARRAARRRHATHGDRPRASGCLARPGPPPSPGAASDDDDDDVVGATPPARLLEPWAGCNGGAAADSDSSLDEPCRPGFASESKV
Chain of β2-adrenergic receptor (P07550 whole entry): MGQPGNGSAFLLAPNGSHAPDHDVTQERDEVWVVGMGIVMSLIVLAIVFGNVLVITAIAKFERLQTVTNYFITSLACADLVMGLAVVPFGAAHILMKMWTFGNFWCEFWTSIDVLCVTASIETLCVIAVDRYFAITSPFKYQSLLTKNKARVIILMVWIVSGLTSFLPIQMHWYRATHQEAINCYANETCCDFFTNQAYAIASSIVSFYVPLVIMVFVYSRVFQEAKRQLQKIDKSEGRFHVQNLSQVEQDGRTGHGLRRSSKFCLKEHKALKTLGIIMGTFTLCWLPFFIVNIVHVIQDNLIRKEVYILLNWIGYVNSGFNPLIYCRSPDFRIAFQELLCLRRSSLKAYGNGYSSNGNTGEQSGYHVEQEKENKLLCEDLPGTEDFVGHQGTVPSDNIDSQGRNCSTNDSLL
Chain of serotonin 5HT2A receptor (P28223 whole entry): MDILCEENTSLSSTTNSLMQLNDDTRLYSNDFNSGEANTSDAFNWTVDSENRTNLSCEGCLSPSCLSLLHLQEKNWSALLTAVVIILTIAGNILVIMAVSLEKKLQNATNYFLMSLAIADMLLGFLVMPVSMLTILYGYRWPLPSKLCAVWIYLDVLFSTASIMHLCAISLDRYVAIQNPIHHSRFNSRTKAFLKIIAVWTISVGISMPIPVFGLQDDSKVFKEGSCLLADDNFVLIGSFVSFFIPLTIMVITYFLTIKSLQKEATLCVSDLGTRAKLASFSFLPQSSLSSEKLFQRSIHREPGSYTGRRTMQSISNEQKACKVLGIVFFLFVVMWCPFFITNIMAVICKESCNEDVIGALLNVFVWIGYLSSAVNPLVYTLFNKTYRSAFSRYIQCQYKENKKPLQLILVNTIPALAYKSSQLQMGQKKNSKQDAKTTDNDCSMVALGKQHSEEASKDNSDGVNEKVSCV
Chain of central Dopamine type 2 (D2) receptor (P14416 whole entry): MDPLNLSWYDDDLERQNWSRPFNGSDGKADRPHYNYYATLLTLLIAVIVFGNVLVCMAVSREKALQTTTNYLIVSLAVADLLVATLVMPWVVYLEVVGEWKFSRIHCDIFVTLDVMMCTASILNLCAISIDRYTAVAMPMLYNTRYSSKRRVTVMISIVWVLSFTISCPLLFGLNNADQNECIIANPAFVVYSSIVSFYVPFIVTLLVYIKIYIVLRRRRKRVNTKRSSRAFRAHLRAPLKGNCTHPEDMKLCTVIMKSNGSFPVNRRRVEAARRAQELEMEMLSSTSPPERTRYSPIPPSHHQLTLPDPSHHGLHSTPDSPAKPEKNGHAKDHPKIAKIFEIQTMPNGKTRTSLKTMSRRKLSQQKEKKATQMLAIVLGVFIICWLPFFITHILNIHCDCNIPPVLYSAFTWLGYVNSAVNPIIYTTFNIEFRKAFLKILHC
Chain of central dopamine D2 receptor (P14416 whole entry): as above

## Cc1nc2n(c(=O)c1CCN1CCC(c3noc4cc(F)ccc34)CC1)CCCC2O (stereo not drawn) [paliperidone]
[1]; single 12 mg extended-release tablet with divalproex sodium ER two 500 mg tablets once daily
  increase in Cmax and AUC of paliperidone: approximately 50%
[1]; with carbamazepine
  increase in renal clearance of paliperidone: 35%
[1]; with paroxetine 20 mg/day oral
  change in mean Cmax and AUC at steady-state: increase in mean Cmax and AUC values
[2]
  genotoxicity: not genotoxic
[3]
  affinity: no appreciable affinity
[4]; 2 times the oral MRHD of 12 mg
  oral doses at which percentage of treated female rats that became pregnant was not affected: up to 2.5 mg/kg/day
[4]; female, rat, in vivo, po
  dose with increased pre- and post-implantation loss and slightly decreased live embryos: 2.5 mg/kg
[4]; half of the oral MRHD of 12 mg
  oral dose at which these parameters were not affected: 0.63 mg/kg
[4]; mg/m^2
  oral doses at which fertility of male rats was not affected: up to 2 times the oral MRHD of 12 mg/day
[5]
  highest estimated ingestion in overdose: 405 mg
[6]
  genotoxicity: not genotoxic
[7]
  fraction unbound: 0.26
[8]
  genotoxicity: not genotoxic
[9]
  inhibition of metabolism of drugs metabolized by cytochrome P450 isozymes: does not substantially inhibit
[10]
  affinity: no appreciable affinity
[11]
  pKi: 7.77
[12]
  pKi: 8.55 to 8.80
[13]
  central D2 receptor occupancy: 60%
[14]
  Cmax: 35 ng/mL
[15]
  pKi: 8.92 to 9.10
[16]; at high concentrations
  P-gp inhibition: weak inhibitor
[16]; in vitro
  P-gp substrate: substrate of P-glycoprotein (P-gp)
[17]
  exposure without increases in fetal abnormalities: up to 8 times the oral MRHD of 12 mg
[18]
  increase of Cmax and AUC compared to young subjects: 1.2 fold
[19]; one week after single oral dose of 1 mg
  dose excreted unchanged into urine: 59%
[19]; single oral dose of 1 mg
  administered radioactivity recovered in the feces: 11%
  administered radioactivity recovered in urine: Approximately 80%
[20]; females only, oral, days 24 to 73 of age
  no-effect dose for reversible impairment of learning and memory: 0.63 mg/kg/day
[20]; highest dose tested
  doses without other consistent effects on neurobehavioral or reproductive development: ≤ 2.5 mg/kg/day
[21]
  pKi: 8.40
[22]
  substrate of CYP isozymes: not a substrate for CYP1A2
[22]; listed as Paliperidone
  substrate of CYP isozymes: not a substrate
[23]
  affinity: no appreciable affinity

## CCCCCCCCCCCCCCCC(=O)OC1CCCn2c1nc(C)c(CCN1CCC(c3noc4cc(F)ccc34)CC1)c2=O (racemic) [paliperidone palmitate, (±)-3-[2-[4-(6-fluoro-1,2-benzisoxazol-3-yl)-1-piperidinyl]ethyl]-6,7,8,9-tetrahydro-2-methyl-4-oxo-4H-pyrido[1,2-c]pyrimidin-9-yl hexadecanoate]
[6]
  genotoxicity: no genotoxicity
[8]
  genotoxicity: no genotoxicity
[24]
  solubility in ethanol and methanol: very slightly soluble
  solubility in ethyl acetate: slightly soluble
  solubility in polyethylene glycol 400 and propylene glycol: practically insoluble
  water solubility: extreme low water solubility

## Cc1nc2n(c(=O)c1CCN1CCC(c3noc4cc(F)ccc34)CC1)CCCC2 [risperidone]
[25]
  effect on serum testosterone and sperm: decreases in serum testosterone and in sperm motility and concentration
[26]
  no-effect dose for decreased bone length and density: 0.31 mg/kg/day
[27]; pregnant mice
  maternal toxicity: 4 times the MRHD
[27]; pregnant rats
  learning impaired in adult offspring: 0.6 times the MRHD
[27]; rat reproduction studies, mg/m^2
  oral doses at which pup deaths occurred: less than the MRHD
[27]; rats and rabbits, embryo-fetal developmental toxicity
  doses with no evidence of teratogenicity: up to 6 times the MRHD of 16 mg/day
